Laboratory results reported in patent publication US12459921B2, “Isoindoline compound, preparation method, pharmaceutical composition and use thereof” (SHANGHAI INSTITUTE OF MATERIA MEDICA, CHINESE ACADEMY OF …, priority 2018, dated 2025).
pIC50: −log10 of the molar value.

test system: MM.1S cells; test: Inhibitory effect on the proliferation of MM.1S, MTS cell viability test; format: cell-based; details: Homo sapiens, MM1.S, 168 h, multiple myeloma MM.1S cells, 7 days incubation, read-out: Tumor cell inhibitory activity
Summary of the method: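 Viability measured by MTS (OD490 minus OD690 background, 3-4 h) after a 7-day exposure of 20,000 MM.1S cells/well to 5-fold serially diluted compound, 0.2% DMSO final. Inhibition calculated relative to DMSO wells; IC50 curve-fitted, averaged over three repeats.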

Compound	pIC50
O=C1CCC(N2Cc3c(CCCCCN4CCC5(CC4)OC(=O)c4cc(Cl)ccc45)cccc3C2=O)C(=O)N1 (stereo not shown) [Example 129, 3-(4-(5-(5-chloro-3-oxo-3H-spiro[isobenzofuran-1,4′-piperidine]-1′-)pentyl)-1-oxoisoindoline-2-)piperidine-2,6-dione]	6.00 to 7.00
Cc1ccc2c(c1)C1(CCN(CCCCOc3cccc4c3CN(C3CCC(=O)NC3=O)C4=O)CC1)OC2 (stereo not shown) [Example 130, 3-(4-(4-(6-methyl-3H-spiro[isobenzofuran-1,4′-piperidine]-1′-)butoxy)-1-oxoisoindoline-2-)piperidine-2,6-dione]	> 7.00
O=C1CCC(N2Cc3c(CCCCCN4CCC5(CC4)OC(=O)Nc4ncccc45)cccc3C2=O)C(=O)N1 (stereo not shown) [Example 131, 3-(1-oxo-4-(5-(2′-oxo-1′,2′-dihydrospiro[piperidine-4,4′-pyrido[2,3-d][1,3)oxazine)-1-)pentyl)isoindoline-2-)piperidine-2,6-dione]	6.00 to 7.00
O=C1CCC(N2Cc3c(OCCCCCN4CCC5(CC4)OCc4ccc(Cl)cc45)cccc3C2=O)C(=O)N1 (stereo not shown) [Example 132, 3-(4-((5-(6-chloro-3H-spiro[isobenzofuran-1,4-piperidine]-1-)pentyl)oxy)-1-oxoisoindoline-2-)piperidine-2,6-dione]	> 7.00
O=C1CCC(N2Cc3c(CCCCCN4CCC5(CC4)C(=O)Nc4ccc(Cl)cc45)cccc3C2=O)C(=O)N1 (stereo not shown) [Example 133, 3-(4-(5-(5-chloro-2-oxospiro[indoline-3,4′-piperidine]-1′-)pentyl)-1-oxoisoindoline-2-)piperidine-2,6-dione]	> 7.00
COc1ccc2c(c1)C1(CCN(CCCCCc3cccc4c3CN(C3CCC(=O)NC3=O)C4=O)CC1)C(=O)N2 (stereo not shown) [Example 135, 3-(4-(5-(5-methoxy-2-oxospiro[indoline-3,4′-piperidine]-1′-)pentyl)-1-oxoisoindoline-2-)piperidine-2,6-dione]	6.00 to 7.00
O=C1CCC(N2Cc3c(CCCCCN4CCC5(CC4)OCCc4ccccc45)cccc3C2=O)C(=O)N1 (stereo not shown) [Example 137, 3-(1-oxo-4-(5-(spiro[isochroman-1,4′-piperidine]-1′-)pentyl)isoindoline-2-)piperidine-2,6-dione]	6.00 to 7.00
O=C1CCC(N2Cc3c(OCCCN4CCC5(CC4)OCc4ccc(Cl)cc45)cccc3C2=O)C(=O)N1 (stereo not shown) [Example 138, 3-(4-(3-(6-chloro-3H-spiro[isobenzofuran-1,4′-piperidine]-1′-)propoxy)-1-oxoisoindoline-2-)piperidine-2,6-dione]	> 7.00
O=C1CCC(N2Cc3c(CCCCCN4CCC5(C4)C(=O)Nc4ccccc45)cccc3C2=O)C(=O)N1 (stereo not shown) [Example 139]	6.00 to 7.00
Cc1ccc2c(c1)C1(CCN(CCCOc3cccc4c3CN(C3CCC(=O)NC3=O)C4=O)CC1)OC2 (stereo not shown) [Example 140, 3-(4-(3-(6-methyl-3H-spiro[isobenzofuran-1,4′-piperidine]-1′-)propoxy)-1-oxoisoindoline-2-)piperidine-2,6-dione]	> 7.00
O=C1CCC(N2Cc3c(CCCCCN4CCC5(C=Cc6ccccc65)CC4)cccc3C2=O)C(=O)N1 (stereo not shown) [Example 141, 3-(1-oxo-4-(5-(spiro[indene-1,4′-piperidine]-1′-)pentyl)isoindoline-2-)piperidine-2,6-dione]	6.00 to 7.00
O=C1CCC(N2Cc3c(OCCCN4CCC5(CC4)OCc4ccc(F)cc45)cccc3C2=O)C(=O)N1 (stereo not shown) [Example 142, 3-(4-(3-(6-fluoro-3H-spiro[isobenzofuran-1,4′-piperidine]-1′-)propoxy)-1-oxoisoindoline-2-)piperidine-2,6-dione]	6.00 to 7.00
O=C1CCC(N2Cc3c(OCCCCCN4CCC5(CC4)OCc4ccc(F)cc45)cccc3C2=O)C(=O)N1 (stereo not shown) [Example 144, 3-(4-((5-(6-fluoro-3H-spiro[isobenzofuran-1,4-piperidine]-1-)pentyl)oxy)-1-oxoisoindoline-2-)piperidine-2,6-dione]	> 7.00
O=C1CCC(N2Cc3c(CCCCCN4CCC5(CC4)COc4ccccc45)cccc3C2=O)C(=O)N1 (stereo not shown) [Example 145]	6.00 to 7.00
Cc1ccc2c(c1)C1(CCN(CCCCCOc3cccc4c3CN(C3CCC(=O)NC3=O)C4=O)CC1)OC2 (stereo not shown) [Example 146, 3-(4-((5-(6-methyl-3H-spiro[isobenzofuran-1,4′-piperidine]-1′-)pentyl)oxy)-1-oxoisoindoline-2-)piperidine-2,6-dione]	> 7.00
O=C1CCC(N2Cc3c(CCCCCN4CCC5(CC4)C(=O)NCN5c4ccccc4)cccc3C2=O)C(=O)N1 (stereo not shown) [Example 147, 3-(1-oxo-4-(5-(4-oxo-1-phenyl-1,3,8-triazaspiro[4.5]decane-8-)pentyl)isoindoline-2-)piperidine-2,6-dione]	6.00 to 7.00
O=C1CCC(N2Cc3c(OCCCCCCN4CCC5(CC4)COc4ccccc45)cccc3C2=O)C(=O)N1 (stereo not shown) [Example 148, 3-(4-((6-(2H-spiro[benzofuran-3,4′-piperidine]-1′-)hexyl)oxy)-1-oxoisoindoline-2-)piperidine-2,6-dione]	> 7.00

Compound	pIC50
O=C1CCC(N2Cc3c(CCCCN4CCC5(CC4)OCc4ccccc45)cccc3C2=O)C(=O)N1 (stereo not shown) [Example 149, 3-(4-(4-(3H-spiro[isobenzofuran-1,4′-piperidine]-1′-)butyl)-1-oxoisoindoline-2-)piperidine-2,6-dione]	6.00 to 7.00
O=C1CCC(N2Cc3c(OCCCCCCN4CCC5(CC4)OCc4ccc(Cl)cc45)cccc3C2=O)C(=O)N1 (stereo not shown) [Example 150, 3-(4-((6-(6-chloro-3H-spiro[isobenzofuran-1,4′-piperidine]-1′-)hexyl)oxy)-1-oxoisoindoline-2-)piperidine-2,6-dione]	> 7.00
O=C1CCC(N2Cc3c(CCCCN4CCC5(CC4)OCc4ccc(Cl)cc45)cccc3C2=O)C(=O)N1 (stereo not shown) [Example 151, 3-(4-(4-(6-chloro-3H-spiro[isobenzofuran-1,4-piperidine]-1-)butyl)-1-oxoisoindoline-2-)piperidine-2,6-dione]	6.00 to 7.00
O=C1CCC(N2Cc3c(OCCCCC(=O)N4CCC5(CC4)OCc4ccc(Cl)cc45)cccc3C2=O)C(=O)N1 (stereo not shown) [Example 152, 3-(4-((5-(6-chloro-3H-spiro[isobenzofuran-1,4′-piperidine]-1′-)-5-oxopentyl)oxy)-1-oxoisoindoline-2-)piperidine-2,6-dione]	> 7.00
O=C1CCC(N2Cc3c(OCCCC(=O)N4CCC5(CC4)OCc4ccc(Cl)cc45)cccc3C2=O)C(=O)N1 (stereo not shown) [Example 153]	6.00 to 7.00
O=C1CCC(N2Cc3c(OCCCCNC(=O)N4CCC5(CC4)OCc4ccc(Cl)cc45)cccc3C2=O)C(=O)N1 (stereo not shown) [Example 154, 6-chloro-N-(4-((2-(2,6-dioxopiperidine-3-)-1-oxoisoindoline-4-)-oxy-)butyl)-3H-spiro[isobenzofuran-1,4-piperidine]-1-carboxamide]	> 7.00
O=C1CCC(N2Cc3c(OCCNC(=O)N4CCC5(CC4)OCc4ccc(Cl)cc45)cccc3C2=O)C(=O)N1 (stereo not shown) [Example 155, 6-chloro-N-(2-((2-(2,6-dioxopiperidine-3-)-1-oxoisoindoline-4-)oxy)ethyl)-3H-spiro[isobenzofuran-1,4-piperidine]-1-carboxamide]	> 7.00
O=C1CCC(N2Cc3c(CCCCCN4CCC5(CC4)OCc4ccc(F)cc45)cccc3C2=O)C(=O)N1 (stereo not shown) [Example 156, 3-(4-(5-(6-fluoro-3H-spiro[isobenzofuran-1,4′-piperidine]-1′-)pentyl)-1-oxoisoindoline-2-)piperidine-2,6-dione]	> 7.00
Cc1ccc2c(c1)C1(CCN(CCCCCc3cccc4c3CN(C3CCC(=O)NC3=O)C4=O)CC1)OC2 (stereo not shown) [Example 157, 3-(4-(5-(6-methyl-3H-spiro[isobenzofuran-1,4′-piperidine]-1-)pentyl)-1-oxoisoindoline-2-)piperidine-2,6-dione]	> 7.00
Cc1ccc(NC(=O)CCCCOc2cccc3c2CN(C2CCC(=O)NC2=O)C3=O)cc1Cl (stereo not shown) [Example 159, N-(3-chloro-4-methylphenyl)-5-((2-(2,6-dioxopiperidine-3-)-1-oxoisoindoline-4-)oxy)valeramide]	> 7.00
Cc1ccc(NC(=O)NCCOc2cccc3c2CN(C2CCC(=O)NC2=O)C3=O)cc1Cl (stereo not shown) [Example 160, 1-(3-chloro-4-methylphenyl)-3-(2-((2-(2,6-dioxopiperidine-3-)-1-oxoisoindoline-4-)oxy)ethyl)ure]	> 7.00
Cc1ccc(NC(=O)NCCCCOc2cccc3c2CN(C2CCC(=O)NC2=O)C3=O)cc1Cl (stereo not shown) [Example 162, 1-(3-chloro-4-methylphenyl)-3-(4-((2-(2,6-dioxopiperidine-3-)-1-oxoisoindoline-4-)oxy)butyl)urea]	> 7.00
O=C1CCC(N2Cc3c(OCCNC(=O)Nc4ccc(Cl)c(Cl)c4)cccc3C2=O)C(=O)N1 (stereo not shown) [Example 163]	6.00 to 7.00
O=C1CCC(N2Cc3c(CCC[C@H](NC(=O)C4CC4)C(=O)NCc4ccccc4)cccc3C2=O)C(=O)N1 (stereo partly drawn) [Example 165, N-((2S)-1-(benzylamino)-5-(2-(2,6-dioxopiperidine-3-)-1-oxoisoindoline-4-)-1-oxopentyl-2-)cyclopropylformamide]	> 7.00
CC(=O)N[C@@H](CCCc1cccc2c1CN(C1CCC(=O)NC1=O)C2=O)C(=O)NC(C)(C)C (stereo partly drawn) [Example 168, (2S)-2-acetylamino-N-tert-butyl-(2-(2,6-dioxopiperidine-3-)-1-oxoisoindoline-4-)pentanamide]	4.70 to 6.00
CC(=O)N[C@@H](CCCc1cccc2c1CN(C1CCC(=O)NC1=O)C2=O)C(=O)N[C@H](C)c1ccccc1 (stereo partly drawn) [Example 169, (2S)-2-acetylamino-5-(2-(2,6-dioxopiperidine-3-)-1-oxoisoindoline-4-)-N—((R)-1-phenethyl)pentanoamide]	> 7.00
N[C@@H](CCCc1cccc2c1CN(C1CCC(=O)NC1=O)C2=O)C(=O)Nc1ccccc1-c1ccccn1 (stereo partly drawn) [Example 170, (2S)-2-amino-5-(2-(2,6-dioxopiperidine-3-)-1-oxoisoindoline-4-)-N-(2-(pyridine-2-)phenyl)pentanamide]	< 4.70
